Measured values: ChEMBL document CHEMBL5604063, “ASAP - DENV-2 NS2B-NS3 protease fluorescence dose response” (2024)
“And” between values parts separate entries of the source, which are not always exact repeats. Equal entries are not always repeated.

Key:
Genome polyprotein [1] = biological target: T1, Genome polyprotein (dengue virus type 2, UniProt P29990); assay type: functional, Thailand/16681/1984
Genome polyprotein [2] = biological target: T1, Genome polyprotein; assay type: functional, Thailand/16681/1984; remark: listed apart in the source

T1 sequence (P29990 1346-1475 limits assumed): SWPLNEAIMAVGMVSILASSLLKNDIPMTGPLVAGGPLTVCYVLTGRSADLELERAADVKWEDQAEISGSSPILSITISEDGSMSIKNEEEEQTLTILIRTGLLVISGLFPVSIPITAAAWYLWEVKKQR
T1 sequence (P29990 1476-2093 limits assumed): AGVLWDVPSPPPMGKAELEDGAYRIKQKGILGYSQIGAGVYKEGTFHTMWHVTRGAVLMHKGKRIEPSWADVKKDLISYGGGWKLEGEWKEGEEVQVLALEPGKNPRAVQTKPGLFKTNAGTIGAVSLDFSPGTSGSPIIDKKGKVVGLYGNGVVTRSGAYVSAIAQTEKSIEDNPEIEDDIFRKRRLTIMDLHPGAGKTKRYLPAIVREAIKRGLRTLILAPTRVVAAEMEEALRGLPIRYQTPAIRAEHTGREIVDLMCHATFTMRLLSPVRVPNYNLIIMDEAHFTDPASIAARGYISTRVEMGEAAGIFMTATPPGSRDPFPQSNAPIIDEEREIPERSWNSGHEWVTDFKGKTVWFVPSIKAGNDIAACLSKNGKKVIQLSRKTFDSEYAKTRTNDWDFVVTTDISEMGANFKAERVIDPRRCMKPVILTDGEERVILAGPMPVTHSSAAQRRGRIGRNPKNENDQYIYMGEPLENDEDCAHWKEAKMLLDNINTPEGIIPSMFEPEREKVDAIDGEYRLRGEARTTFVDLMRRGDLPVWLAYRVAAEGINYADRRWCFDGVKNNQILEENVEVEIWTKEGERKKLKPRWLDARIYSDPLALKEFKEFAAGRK

Structure (SMILES) | IC50 (Genome polyprotein [1]) | IC50 (Genome polyprotein [2])
N#C[C@H](Nc1cccc(C(=O)O)c1)c1cc(Cl)cc2[nH]ncc12 | > 100 µM | > 99.5 µM
CCCn1ncc2c(C(=O)Nc3ccc4c(c3)CNC4)cc(Cl)cc21 | > 100 µM | > 99.5 µM
O=C1CCc2c(cc(Cl)cc2-c2ccc3[nH]c(C(=O)O)cc3c2)N1 | > 100 µM | > 99.5 µM
Cc1nnc(SC[C@H]2CCCN2C(=O)Nc2ccc3c(c2)CNC3)s1 | > 100 µM | > 99.5 µM
CCCN1C(=O)[C@](Nc2ccc3c(c2)CNC3)(C(=O)NC)c2ccccc21 | > 100 µM | > 99.5 µM
COC1CN(C(=O)c2ccnc(NC(=O)c3cc(C4CC4)n(C)c3C)c2)C1 | > 100 µM | > 99.5 µM
NCc1cccc(NC(=O)c2ccc(=O)n(Cc3ccccc3Cl)c2)c1 | > 100 µM | > 99.5 µM
Cc1cc(C(=O)N[C@H](CC(=O)Nc2cccc(CN)c2)c2ccc(OCc3ccccc3)c(Br)c2)sn1 | > 100 µM | 16.8 µM and 25.3 µM
Cc1c(C(=O)Nc2ccnc(O[C@H]3CCOC3)c2)cc(C2CC2)n1C | > 100 µM | > 99.5 µM
NCc1cc(NC(=O)c2cc(Cl)cc(NC(=O)OCc3ccccc3)c2)cc(C2=CC[C@H](C(=O)O)CC2)c1 | > 100 µM | > 99.5 µM
O=C(NCc1ccc(F)cc1)[C@H](Nc1ccc2c(c1)CNC2)c1cc(Cl)cc2[nH]ncc12 | > 100 µM | > 99.5 µM
Cc1[nH]c2ccc(Br)cc2c1CC(=O)Nc1cccc(CN)c1 | > 100 µM | > 99.5 µM
NCc1cccc(NC(=O)[C@H](NC(=O)OCc2ccccc2)C2CCN(C(=O)[C@H]3C[C@H](O)C3)CC2)c1 | > 100 µM | > 99.5 µM
N#Cc1cccc(N2CCN(Cc3c[nH]c4ccccc34)CC2)c1 | > 100 µM | > 99.5 µM
O=C(Nc1ccc2c(c1)CNC2)c1cc(Cl)cc2[nH]c(-c3c[nH]c(=O)c(Br)c3)nc12 | 13.7 µM | 12.5 µM
O=C(O)CCCn1cnc(-c2cc(Cl)cc(NC(=O)OCc3ccccc3)c2)n1 | > 100 µM | > 99.5 µM
O=C(O)C[C@H]1NCc2cc(NC(=O)c3cc(Cl)cc4[nH]ncc34)ccc21 | > 100 µM | > 99.5 µM
O=C(Nc1ccc2c(c1)CNC2)c1cc(C(F)(F)F)cc2[nH]ccc12 | > 100 µM | > 99.5 µM
CCOCC1(c2nc3c(C(=O)Nc4ccc5c(c4)CNC5)cc(Cl)cc3[nH]2)CC1 | > 100 µM | 87.5 µM
Cc1cc(CN)cc(NC(=O)c2cccc3c2CC(=O)N3)c1 | > 100 µM | 75.9 µM
NS(=O)(=O)c1cccc(N2CCN(Cc3c[nH]c4ccccc34)CC2)c1 | > 100 µM | > 99.5 µM

Structure (SMILES) | IC50 (Genome polyprotein [1]) | IC50 (Genome polyprotein [2])
Cc1ccc(OCc2ccccc2Cl)c(C(=O)Nc2cccc(CN)c2)c1 | > 100 µM | 99.5 µM
O=C(Nc1ccc2c(c1)CNC2)c1cc(F)cc2[nH]c(-c3ccc(F)cc3O)nc12 | > 100 µM | 62.1 µM
O=C(Nc1cc(Cl)cc(C(=O)Nc2ccnc(C(=O)O)c2)c1)OCc1ccccc1 | > 100 µM | 66.9 µM
Cc1ccc(Sc2ncccc2C(=O)Nc2cccc(CN)c2)cc1C | > 100 µM | > 99.5 µM
NCc1cccc(NC(=O)c2nn(-c3ccccc3F)cc2Br)c1 | > 100 µM | > 99.5 µM
NCc1cccc(NC(=O)[C@H](NC(=O)OCc2ccccc2)c2cccc(-c3ccccn3)c2)c1 | > 100 µM | > 99.5 µM
CC(C)(C)O[C@H]1CCCN(C(=O)Nc2ccc3c(c2)CNC3)C1 | > 100 µM | > 99.5 µM
O=C(Nc1ccc2c(c1)OCCNC2)c1cc(Cl)cc2[nH]ncc12 | > 100 µM | > 99.5 µM
CNC(=O)[C@H](Nc1ccc2c(c1)CNC2)c1cccc2[nH]ncc12 | > 100 µM | 81.3 µM
NCc1cccc(NC(=O)c2cccc3c2CC(=O)N3)c1 | > 100 µM | > 99.5 µM
Cc1c(C(=O)Nc2cc(-c3cccnc3)ccn2)cc(C(C)(C)C)n1C | > 100 µM | > 99.5 µM
CC(C)c1noc2nc(C3CC3)cc(C(=O)Nc3cccc(CN)c3)c12 | > 100 µM | > 99.5 µM
NCc1cc(NS(=O)(=O)c2ccc(Oc3ccccc3Cl)cc2)ccc1Cl | > 100 µM | > 99.5 µM
Cc1c(C(=O)Nc2cc(C(=O)N3CCC[C@H]3C(N)=O)ccn2)cc(C2CC2)n1C | > 100 µM | > 99.5 µM
O=C(Nc1ccc2c(c1)CNC2)c1cc2ccccc2[nH]1 | > 100 µM | > 99.5 µM
Cn1ccc(-c2cc(F)cc(C(=O)Nc3ccc4c(c3)CNC4)c2)cc1=O | > 100 µM | > 99.5 µM
C=CC[C@]1(NC(=O)c2cc(Cl)cc(NC(=O)OCc3ccccc3)c2)CCNC1 | > 100 µM | > 99.5 µM
O=C1Cc2c(cccc2C(=O)Nc2cc([C@H]3CCOC3)ccn2)N1 | > 100 µM | > 99.5 µM
COCCCN1Cc2ccc(NC(=O)c3cc(Cl)cc4[nH]ncc34)cc2C1 | > 100 µM | > 99.5 µM
O=C1Cc2c(cccc2C(=O)NC[C@H]2CCCN(c3nccs3)C2)N1 | > 100 µM | > 99.5 µM
O=C1Cc2c(cccc2C(=O)Nc2ccc3c(c2)CCNCC3)N1 | 33.8 µM | 21 µM

Structure (SMILES) | IC50 (Genome polyprotein [1]) | IC50 (Genome polyprotein [2])
C[C@H](C(=O)O)c1cccc(NC(=O)c2cc(Cl)cc(NC(=O)OCc3ccccc3)c2)c1 | 24.7 µM and 27.2 µM | 58.7 µM
CNC(=O)[C@H](Nc1ccc2c(c1)CNC2)c1cc(Cl)cc2[nH]ncc12 | > 100 µM | > 99.5 µM
N#C[C@H](Nc1ccc(-c2nn[nH]n2)cc1)c1cc(Cl)cc(NC(=O)OCc2ccccc2)c1 | 7.23 µM and 13 µM | 10.7 µM
Nc1cccc(NC(=O)c2cc(Cl)cc(NC(=O)OCc3ccccc3)c2)c1 | > 100 µM | > 99.5 µM
CC(=O)N1CCC([C@H](NC(=O)OCc2ccccc2)C(=O)Nc2cccc(CN)c2)CC1 | > 100 µM | > 99.5 µM
O=C(Nc1cc(Cl)cc(C(=O)Nc2cccc(-c3cn[nH]n3)c2)c1)OCc1ccccc1 | > 100 µM | 55.7 µM
O=C(Nc1ccc2c(c1)CNC2)c1ccc2ncsc2c1 | > 100 µM | > 99.5 µM
Cc1cc(-c2ccc3[nH]c(C(=O)O)cc3c2)c2cc[nH]c(=O)c2c1 | > 100 µM | > 99.5 µM
O=C1Cc2c(cccc2C(=O)Nc2ccc3c(c2)C(=O)OC3)N1 | > 100 µM | > 99.5 µM
c1cncc(-c2cccc(NCc3c[nH]c4ccccc34)c2)c1 | > 100 µM | > 99.5 µM
O=C(O)c1ccc(Cc2c[nH]c3ccc(Cl)cc23)cc1 | > 100 µM | > 99.5 µM
Cc1nc2c(C(=O)Nc3ccc4c(c3)CNC4)cc(Cl)cc2[nH]1 | 80.9 µM | > 99.5 µM
O=C(O)C[C@H]1CCCN1C(=O)c1cc(Cl)cc(NC(=O)OCc2ccccc2)c1 | > 100 µM | > 99.5 µM
CCc1cnc2c(NC(=O)c3cccc4c3CC(=O)N4)cnn2c1 | > 100 µM | > 99.5 µM
CCc1cc(C(=O)Nc2cccc(CN)c2)sc1-c1ccc(Cl)cc1 | > 100 µM | 19.7 µM and 24.8 µM
Cc1c(C(=O)Nc2ccc3c(c2)CCS3(=O)=O)cc(C2CC2)n1C | > 100 µM | > 99.5 µM
Cc1cnccc1-c1cc(NC(=O)c2cc(F)cc3[nH]ncc23)cc2c1CNC2 | 65.4 µM | > 99.5 µM
Cn1cc2c(C(=O)Nc3ccc4c(c3)CNC4)cccc2n1 | > 100 µM | > 99.5 µM
O=C(Nc1cc(Cl)cc(C(=O)Nc2cc(C(=O)O)ccn2)c1)OCc1ccccc1 | 35.6 µM | > 99.5 µM
O=C(Nc1ccc2c(c1)CNC2)c1ccc2scnc2c1 | 41.5 µM and 45.1 µM | 23.2 µM and 10.6 µM
Cc1ncc(COc2ccc([C@@H](NC(=O)OCc3ccccc3)C(=O)Nc3cccc(CN)c3)cc2)o1 | > 100 µM | > 99.5 µM

Structure (SMILES) | IC50 (Genome polyprotein [1]) | IC50 (Genome polyprotein [2])
NCc1cccc(CCc2cc(Cl)cc(NC(=O)OCc3ccccc3)c2)c1 | > 100 µM | 34.8 µM
CC(C)Cn1cc2c(C(=O)Nc3ccc4c(c3)CNC4)cc(Cl)cc2n1 | > 100 µM | > 99.5 µM
N[C@H]1CCc2ncc(NS(=O)(=O)c3ccc(Oc4ccccc4Cl)cc3)cc2C1 | > 100 µM | > 99.5 µM
COc1ccc([C@@H]2C[C@H]2NC(=O)c2cccc3c2CC(=O)N3)cc1 | > 100 µM | > 99.5 µM
Cc1c(C(=O)Nc2cccc(-c3nnn[nH]3)c2)cnn1-c1ccc(Cl)cc1 | > 100 µM | > 99.5 µM
O=C1Cc2c(cccc2C(=O)Nc2ccc(N3CCOC3=O)nc2)N1 | > 100 µM | > 99.5 µM
NCc1cccc(NC(=O)c2cccc3c2O[C@H](c2ccccc2)C(=O)N3)c1 | > 100 µM | > 99.5 µM
NCc1cc(C(=O)N2CCNC(=O)C2)cc([C@@H]2C[C@H]2c2cc(Cl)cc(NC(=O)OCc3ccccc3)c2)c1 | > 100 µM | 49.1 µM
O=C(Nc1ccc2c(c1)C(=O)OC2)c1cccc(CC2CNC2)c1 | > 100 µM | > 99.5 µM
C[C@H]1CN(C)C[C@H](C(=O)Nc2cccc(CN)c2)O1 | > 100 µM | > 99.5 µM
CCOc1cccc(-c2ccc(S(=O)(=O)Nc3ccc(Cl)cc3C(=O)O)cc2C)c1 | 7.34 µM | 7.15 µM
O=C(Nc1cccc(-c2nnn[nH]2)c1)c1cc(Cl)cc2[nH]ncc12 | > 100 µM | > 99.5 µM
O=C1Cc2c(cccc2C(=O)NC2(c3ncccc3F)CC2)N1 | > 100 µM | > 99.5 µM
Cn1ccc(-c2cc(CN)cc([C@@H]3C[C@H]3c3cc(Cl)cc(NC(=O)OCc4ccccc4)c3)c2)n1 | > 100 µM | 62.7 µM
O=C(O)c1cc2cc(-c3cccc([C@H]4CCOC4)n3)ccc2[nH]1 | > 100 µM | > 99.5 µM
NCc1cc(NC(=O)c2cc(Cl)cc(NC(=O)OCc3ccccc3)c2)cc([C@@H]2C[C@H]2C(=O)O)c1 | > 100 µM | > 99.5 µM
Cc1ccc(C(=O)Nc2ccc3c(c2)CNC3)c2[nH]ncc12 | > 100 µM | > 99.5 µM
O=C1Cc2cc(NC(=O)c3cc(Cl)cc(NC(=O)OCc4ccccc4)c3)ccc2N1 | > 100 µM | > 99.5 µM
c1cncc(-c2cc(CN3CCC(c4cscn4)CC3)n[nH]2)c1 | > 100 µM | > 99.5 µM
O=C(Nc1ccc2c(c1)CNC2)c1cc(Cl)cc2nn(-c3ccccc3)nc12 | 12.9 µM | 7.45 µM and 8.05 µM and 6.62 µM
